Assay: Stability of liver microsomal metabolism
Format: in vitro ADME, rat
Conditions: 37 °C
Experimental: The total volume of the incubation system is 1 mL, which contains 1 mmol/L NADPH, 0.5 mg/mL rat liver microsomes, 1 μmol/L 15p standard solution, which was supplemented with K2HPO4 buffer to 1 mL. The solution should be added to the incubation system. The incubation system was rapidly incubated in a water bath shaker at 37 °C for 5 min before adding 200 μL of 5 mmol/L NADPH. The 50 μL of the incubation system was quickly removed at 0, 5, 10, 20, 40, 60, 90, 120, 150, 210, and 270 min. The concentrations of the samples to be measured (15p) in rat liver microsomes were measured by HPLC-MS/MS. Each sample was operated on three times in parallel. The experimental data were processed and plotted using the computer programs Microsoft Excel (97–2003) and Origin 7.5 software.

C=CCn1cnc(/C=c2\[nH]c(=O)/c(=C/c3cccc(C(=O)c4ccc(F)cc4)c3)[nH]c2=O)c1C(C)C [15p]
Clearance by liver microsomes (NADPH): quickly cleared by liver microsomes
Total clearance (CL) at 1 μmol/L (Wistar, rat, rat liver microsomes, rat liver microsomes 0.5 mg/mL, 1 μmol/L): 80.6 mL/min/kg
CLint scaled at 1 μmol/L (Wistar, rat, rat liver microsomes, rat liver microsomes 0.5 mg/mL, 1 μmol/L, read-out: CLint (intrinsic clearance)): 772 mL/min/kg
half-life at 1 μmol/L (Wistar, rat liver microsomes 0.5 mg/mL, 1 μmol/L): 7.07 min
